Starred links: 1 amine or outer side, 2 acyl side, 3 side chain; linkers in the order of their positions; H or OH if unused. Positions of bridges follow the written chain, without caps; N, C: chain ends. Residues, ends and D or L forms follow the SMILES beside them. *: point of attachment. C18 diacid = O=C(O)CCCCCCCCCCCCCCCCC(=O)*; γGlu = O=C(O)[C@H](CCC(=O)[*:2])N[*:1]; X1 = O=C(CCCCCCCCCCCCCCCCc1nnn[nH]1)*; AEEA = NCCOCCOCC(=O)O
Tests used:
[1] = Thioflavin T (ThT) assay: lagtime and peptide recovery; format: physicochemical; settings: assay terminated after 45 hours; for LagTime (h) at pH 6.5: ThT assay, pH 6.5, 37° C.; for LagTime (h) at pH 4.0: ThT, 37° C., shaking
Text: The ThT assay was used to evaluate physical stability of the CNP compounds and their suitability for liquid formulation. Low physical stability of peptides may lead to amyloid fibril formation, which is observed as well-ordered, thread-like macromolecular structures in the sample eventually resulting in gel formation. This has traditionally been tested by visual inspection of the sample. However, that kind of measurement is very subjective and depending on the observer. Therefore, the application of a small molecule indicator probe is much more advantageous. Thioflavin T (ThT) is such a probe and has a distinct fluorescence signature when binding to fibrils [Naiki et al. (1989) Anal. Biochem. 177, 244-249; LeVine (1999) Methods. Enzymol. […], 274-284].
Procedure: Thioflavin T was added to the supernatant samples from Example 5 (pH 4.0 and 6.5) using an aqueous ThT stock solution to a final concentration of about 1 μM in the samples. Sample aliquots of 150 μL were placed in a 96 well microtiter plate (Packard OptiPlate™-96, white polystyrene). Usually, two to three replicas of each sample were applied to the plate. The plate was sealed and placed in a fluorescence plate reader (Fluoroskan Ascent FL) and incubated at 37° C. with orbital shaking (960 rpm; 1 mm amplitude). Fluorescence measurements were performed every 20 minutes using excitation through a 444 nm filter and measurement of emission through a 485 nm filter. Between each measurement, the plate was shaken and heated as described above and the assay was terminated after 45 hours. Fluorescence measurements for each microtiter plate well were plotted against time and the lag-time (time until an increase in ThT fluorescence was observed) was estimated.
To assess loss of dissolved peptide following 45h incubation, peptide recovery was measured as the ratio between total peak area after incubation vs. before incubation using the RP-UPLC method described below.
Measurement of LagTime and Peptide recovery % using RP-UPLC: RP-UPLC was conducted using an Acquity UPLC BEH C18 1.7 μm (2.1×30 mm) Waters column (Eluent A: 0.1% v/v % TFA in water; Eluent B: 0.1% v/v TFA in acetonitrile/water 4:1) with gradient elution (0 min: 95% A; 2 min: 20% A; 2.3 min: 20% A; 2.4 min: 95% A; 9 min: 95% A) in a flow rate of 0.9 mL/min and a column temperature of 30° C. UV-detection at 215 nm was used to assess the total peptide area.
Samples at pH 4.0 were prepared as described in Example 5 and subjected to the ThT assay as described above.
Samples at pH 6.5 were prepared as described in Example 5 and subjected to the ThT assay as described above.

[2] = High-Molecular-Weight-Protein (HMWP) formation by SEC-UPLC; format: physicochemical; settings: increase over two weeks at 37° C.
Procedure: In order to assess the propensity of CNP compounds to form covalent dimers or oligomers when formulated the High-Molecular-Weight-Protein content of CNP compound formulations at pH 4.0 and 6.5 were determined.
Procedure: The relative amount of covalent HMWP was assessed using SEC-UPLC. SEC-UPLC was conducted using a Waters UPLC Protein BEH SEC column, 125A, 4.6×150 mm, 1.7 μm, with isocratic elution (0.3 M NaCl, 10 mM NaH2PO4 and 5 mM H3PO4, 50% (v/v) isopropanol, pH 2.4) with a flow rate of 0.3 mL/min, a column temperature at 50° C. with UV-detection at 215 nm. The total area of peaks eluting prior to the monomeric main peak was termed HMWP and given on a percentage scale relative to the total peptide peak area.
(§1) Results: HMWP Formation Following 2-Weeks Quiescent Incubation at 37° C.: Samples at pH 4.0 were prepared as described in Example 5 and the amount of HMWP was determined as described above. Samples were incubated for two weeks at 37° C. and the amount of HMWP was determined again. The increase in HMWP over two weeks incubation at 37° C. are reported in Table 10 (in case the incubation period deviated from two weeks the increase in HMWP was normalized to two weeks assuming a constant formation rate).
as §1, with “Samples” for “Results: HMWP Formation Following 2-Weeks Quiescent Incubation at 37° C.: Samples”, “6.5” for “4.0”, “11” for “10”

| Compound | LagTime (h) at pH 6.5 [1] [h] | LagTime (h) at pH 4.0 [1] [h] | further results |
| --- | --- | --- | --- |
| CC[C@H](C)[C@@H]1NC(=O)[C@H](CCCNC(=N)N)NC(=O)[C@H](CC(=O)O)NC(=O)[C@H](CC(C)C)NC(=O)[C@@H]2CCCN2C(=O)[C@H](CC(C)C)NC(=O)CNC(=O)[C@H](Cc2ccccc2)NC(=O)[C@@H](NC(=O)CNC(=O)[C@H](CCC(N)=O)NC(=O)[C@H](CO)NC(=O)[C@H](CC(C)C)NC(=O)CNC(=O)[C@H](CCCCN)NC(=O)[C@H](CCCCN)NC(=O)[C@H](CCC(N)=O)NC(=O)[C@H](C)NC(=O)CNC(=O)[C@H](CCCCN)NC(=O)[C@H](Cc2ccc(O)cc2)NC(=O)[C@H](CCCCN)NC(=O)[C@H](CCCNC(=N)N)NC(=O)[C@H](C)NC(=O)[C@H](CCC(N)=O)NC(=O)[C@@H]2CCCN2C(=O)[C@H](Cc2c[nH]cn2)NC(=O)[C@H](CCC(=O)O)NC(=O)[C@H](CCC(N)=O)NC(=O)COCCOCCNC(=O)COCCOCCNC(=O)COCCOCCNC(=O)COCCOCCNC(=O)CC[C@H](NC(=O)CC[C@H](NC(=O)CC[C@H](NC(=O)CC[C@H](NC(=O)CC[C@H](NC(=O)CC[C@H](NC(=O)CCCCCCCCCCCCCCCCC(=O)O)C(=O)O)C(=O)O)C(=O)O)C(=O)O)C(=O)O)C(=O)O)CSSC[C@@H](C(=O)O)NC(=O)CNC(=O)[C@H](CC(C)C)NC(=O)CNC(=O)[C@H](CO)NC(=O)[C@H](CC(C)C)NC(=O)[C@H](CO)NC(=O)CNC1=O [compound 1404] ({C18 diacid-γGlu-γGlu-γGlu-γGlu-γGlu-γGlu-AEEA-AEEA-AEEA-AEEA}-QEHPQARKYKGAQKKGLSQGCFGLPLDRIGSLSGLGC-OH; disulfide 21-37) | 45 | – | 2-Week HMWP formation at pH 6.5 (%), % relative to total peak area ([2]; pH 6.5): 1.8% |
| CC[C@H](C)[C@@H]1NC(=O)[C@H](CCCNC(=N)N)NC(=O)[C@H](CC(=O)O)NC(=O)[C@H](CC(C)C)NC(=O)[C@@H]2CCCN2C(=O)[C@H](CC(C)C)NC(=O)CNC(=O)[C@H](Cc2ccccc2)NC(=O)[C@@H](NC(=O)CNC(=O)[C@H](CCC(N)=O)NC(=O)[C@H](CO)NC(=O)[C@H](CC(C)C)NC(=O)CNC(=O)[C@H](CCCCN)NC(=O)[C@H](CCCCN)NC(=O)[C@H](CCC(N)=O)NC(=O)[C@H](C)NC(=O)CNC(=O)[C@@H]2CCCN2C(=O)[C@H](C)NC(=O)[C@H](CCC(N)=O)NC(=O)CNC(=O)COCCOCCNC(=O)COCCOCCNC(=O)CC[C@H](NC(=O)CCCCCCCCCCCCCCCCC(=O)O)C(=O)O)CSSC[C@@H](C(=O)O)NC(=O)CNC(=O)[C@H](CC(C)C)NC(=O)CNC(=O)[C@H](CO)NC(=O)[C@H](CC(C)C)NC(=O)[C@H](CO)NC(=O)CNC1=O [compound 1484] ({C18 diacid-γGlu-AEEA-AEEA}-GQAPGAQKKGLSQGCFGLPLDRIGSLSGLGC-OH; disulfide 15-31; C-terminus assumed) | 4 | – | – |
| CC[C@H](C)[C@@H]1NC(=O)[C@H](CCCNC(=N)N)NC(=O)[C@H](CC(=O)O)NC(=O)[C@H](CC(C)C)NC(=O)[C@@H]2CCCN2C(=O)[C@H](CC(C)C)NC(=O)CNC(=O)[C@H](Cc2ccccc2)NC(=O)[C@@H](NC(=O)CNC(=O)[C@H](CCCCN)NC(=O)[C@H](CO)NC(=O)[C@H](CC(C)C)NC(=O)CNC(=O)[C@H](CCCCN)NC(=O)[C@H](CCCCN)NC(=O)[C@H](CCC(N)=O)NC(=O)[C@H](C)NC(=O)CNC(=O)[C@H](CCCCN)NC(=O)[C@H](Cc2ccc(O)cc2)NC(=O)[C@H](CCCCN)NC(=O)[C@H](CCCNC(=N)N)NC(=O)[C@H](C)NC(=O)COCCOCCNC(=O)COCCOCCNC(=O)CC[C@H](NC(=O)CC[C@H](NC(=O)CC[C@H](NC(=O)CC[C@H](NC(=O)CC[C@H](NC(=O)CCCCCCCCCCCCCCCCC(=O)O)C(=O)O)C(=O)O)C(=O)O)C(=O)O)C(=O)O)CSSC[C@@H](C(=O)O)NC(=O)CNC(=O)[C@H](CC(C)C)NC(=O)CNC(=O)[C@H](CO)NC(=O)[C@H](CC(C)C)NC(=O)[C@H](CO)NC(=O)CNC1=O [compound 1470] ({C18 diacid-γGlu-γGlu-γGlu-γGlu-γGlu-AEEA-AEEA}-ARKYKGAQKKGLSKGCFGLPLDRIGSLSGLGC-OH; disulfide 16-32) | – | 45 | 2-Week HMWP formation at pH 4.0 (%), % relative to total peak area ([2]; pH 4.0): 1.75% |
| CC[C@H](C)[C@@H]1NC(=O)[C@H](CCCNC(=N)N)NC(=O)[C@H](CC(=O)O)NC(=O)[C@H](CC(C)C)NC(=O)[C@@H]2CCCN2C(=O)[C@H](CC(C)C)NC(=O)CNC(=O)[C@H](Cc2ccccc2)NC(=O)[C@@H](NC(=O)CNC(=O)[C@H](CCC(N)=O)NC(=O)[C@H](CO)NC(=O)[C@H](CC(C)C)NC(=O)CNC(=O)[C@H](CO)NC(=O)[C@H](CCCCN)NC(=O)[C@H](CCC(N)=O)NC(=O)[C@H](C)NC(=O)CNC(=O)[C@H](Cc2c[nH]cn2)NC(=O)[C@H](Cc2ccc(O)cc2)NC(=O)[C@H](CCCCN)NC(=O)[C@H](CCCNC(=N)N)NC(=O)[C@H](C)NC(=O)COCCOCCNC(=O)COCCOCCNC(=O)CC[C@H](NC(=O)CC[C@H](NC(=O)CCCCCCCCCCCCCCCCc2nnn[nH]2)C(=O)O)C(=O)O)CSSC[C@@H](C(=O)O)NC(=O)CNC(=O)[C@H](CC(C)C)NC(=O)CNC(=O)[C@H](CO)NC(=O)[C@H](CC(C)C)NC(=O)[C@H](CO)NC(=O)CNC1=O [compound 1426] ({X1-γGlu-γGlu-AEEA-AEEA}-ARKYHGAQKSGLSQGCFGLPLDRIGSLSGLGC-OH; disulfide 16-32) | – | 0.33 | – |
| CC[C@H](C)[C@@H]1NC(=O)[C@H](CCCNC(=N)N)NC(=O)[C@H](CC(=O)O)NC(=O)[C@H](CC(C)C)NC(=O)[C@@H]2CCCN2C(=O)[C@H](CC(C)C)NC(=O)CNC(=O)[C@H](Cc2ccccc2)NC(=O)[C@@H](NC(=O)CNC(=O)[C@H](CCCCN)NC(=O)[C@H](CO)NC(=O)[C@H](CC(C)C)NC(=O)CNC(=O)[C@H](CCCCN)NC(=O)[C@H](CCCCN)NC(=O)[C@H](CCC(N)=O)NC(=O)[C@H](C)NC(=O)CNC(=O)[C@H](CCC(=O)O)NC(=O)[C@H](Cc2ccc(O)cc2)NC(=O)COCCOCCNC(=O)COCCOCCNC(=O)COCCOCCNC(=O)COCCOCCNC(=O)CC[C@H](NC(=O)CCCCCCCCCCCCCCCCC(=O)O)C(=O)O)CSSC[C@@H](C(=O)O)NC(=O)CNC(=O)[C@H](CC(C)C)NC(=O)CNC(=O)[C@H](CO)NC(=O)[C@H](CC(C)C)NC(=O)[C@H](CO)NC(=O)CNC1=O [compound 1375] ({C18 diacid-γGlu-AEEA-AEEA-AEEA-AEEA}-YEGAQKKGLSKGCFGLPLDRIGSLSGLGC-OH; disulfide 13-29; C-terminus assumed) | 45 | – | – |
| CC[C@H](C)[C@@H]1NC(=O)[C@H](CCCNC(=N)N)NC(=O)[C@H](CC(=O)O)NC(=O)[C@H](CC(C)C)NC(=O)[C@@H]2CCCN2C(=O)[C@H](CC(C)C)NC(=O)CNC(=O)[C@H](Cc2ccccc2)NC(=O)[C@@H](NC(=O)CNC(=O)[C@H](CO)NC(=O)[C@H](CO)NC(=O)[C@@H](NC(=O)CNC(=O)[C@@H](NC(=O)[C@H](CCCCN)NC(=O)[C@H](CCC(N)=O)NC(=O)[C@H](C)NC(=O)CNC(=O)[C@H](Cc2c[nH]cn2)NC(=O)[C@H](Cc2ccc(O)cc2)NC(=O)COCCOCCNC(=O)COCCOCCNC(=O)CC[C@H](NC(=O)CCCCCCCCCCCCCCCCC(=O)O)C(=O)O)[C@@H](C)O)C(C)C)CSSC[C@@H](C(=O)O)NC(=O)CNC(=O)[C@H](CC(C)C)NC(=O)CNC(=O)[C@H](CO)NC(=O)[C@H](CC(C)C)NC(=O)[C@H](CO)NC(=O)CNC1=O [compound 1303] ({C18 diacid-γGlu-AEEA-AEEA}-YHGAQKTGVSSGCFGLPLDRIGSLSGLGC-OH; disulfide 13-29) | 5 | – | – |
